Results on 5 compounds are retold here after ChEMBL document CHEMBL1151000, “Novel synthetic rotenoids with blocked B/C ring systems” (Bioorg Med Chem Lett, 1992).

A word on the IC50: it is the midpoint of a concentration-inhibition curve. Lower therefore signals inhibition by little substance.

Where only a bound is given, the exact number is not on record here.

Series [1] in a line: The compound was evaluated for the inhibition of NADH dehydrogenase.
Series [2] can be described thus: The compound was evaluated for the insecticidal activity against housefly with cytochrome P450 oxidase inhibitor piperonyl butoxide. Type of series: ADME. The following applies: musca domestica.
The nature of series [3]: The compound was evaluated for the insecticidal activity against housefly without cytochrome P450 oxidase inhibitor piperonyl butoxide. To be noted: musca domestica.

For the compound `C=C(C)[C@H]1Cc2c(ccc3c2OC24COc5cc(OC)c(OC)cc5C2(C4)C3=O)O1` (some centres not stated), the IC50 in series [1] amounted to 80 nM. The compound further gave an LD50 in series [2] of 10 ug fly-1.

`C=C(C)[C@H]1Cc2c(ccc3c2O[C@@H]2COc4cc(OC)c(OC)cc4[C@]2(C)C3=O)O1` returned an IC50 in series [1] of 17 nM. For the same compound, the LD50 in series [3] stood at 2 ug fly-1; in series [2] it was 0.2 ug fly-1.

`COc1cc2c(cc1OC)[C@]1(C)C(=O)c3ccc4c(c3O[C@@H]1CO2)C[C@H](C(C)C)O4` registered an IC50 in series [1] of 16 nM.

Regarding `C=C(C)[C@H]1Cc2c(ccc3c2O[C@@H]2COc4cc(OC)c(OC)cc4[C@@H]2C3=O)O1` [ROTENONE], the midpoint of inhibition in series [1], the IC50, lay at 3.5 nM. For the same compound, the LD50 stood at 10 ug fly-1 in series [3] and 5 ug fly-1 in series [2].

`C=C(C)[C@H]1Cc2c(ccc3c2O[C@@H]2COc4cc(OC)c(OC)cc4[C@@]2(C)C3=O)O1.C=C(C)[C@H]1Cc2c(ccc3c2O[C@H]2COc4cc(OC)c(OC)cc4[C@]2(C)C3=O)O1` displayed an IC50 in series [1] of 360 nM. Also, the LD50 is over 10 ug fly-1 in series [3] and 4 ug fly-1 in series [2].
